The source of these data is PMC7125024 (ChemMedChem, 2020).

In data set [1] the test system is NB4 APL cells. The conditions noted are these: read-out: IC50 NB4 (antiproliferative activity), 48 h.
Data set [2] has as its system MV4–11 AML cells. The conditions noted are these: read-out: IC50 MV4–11 (antiproliferative activity), 48 h.
Another data set deals with T1, human MAO A (Homo sapiens, UniProt P21397).
T1 sequence (P21397 1-527): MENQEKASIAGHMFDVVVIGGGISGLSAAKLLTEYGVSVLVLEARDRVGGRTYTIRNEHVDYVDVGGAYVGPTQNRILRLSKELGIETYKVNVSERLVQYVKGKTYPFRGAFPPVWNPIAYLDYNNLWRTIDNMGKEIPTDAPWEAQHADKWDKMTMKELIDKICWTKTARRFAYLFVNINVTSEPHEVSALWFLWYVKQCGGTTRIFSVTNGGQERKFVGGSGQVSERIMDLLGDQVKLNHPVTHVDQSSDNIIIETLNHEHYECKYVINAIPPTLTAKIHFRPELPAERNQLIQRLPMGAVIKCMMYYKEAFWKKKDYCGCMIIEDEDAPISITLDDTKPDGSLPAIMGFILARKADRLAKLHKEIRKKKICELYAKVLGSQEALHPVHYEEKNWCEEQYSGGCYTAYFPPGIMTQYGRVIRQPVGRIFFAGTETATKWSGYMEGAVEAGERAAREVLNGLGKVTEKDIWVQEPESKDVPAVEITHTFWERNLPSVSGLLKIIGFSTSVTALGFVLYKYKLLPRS
The experiment in a line: Anti-MAO assay. The data set is classed as biochemical. The following applies: for % inhibition at 100 μM MAO A: NI = no inhibition; for inhibition at 100 µM: read-out: % inhibition at 100 μM MAO A.

The subject of data set [3] is MV4–11 AML cells. The experiment in a line: cells. The conditions noted are these: Homo sapiens, MV4-11, 48 h, read-out: IC50 MV4–11 (antiproliferative activity).
Data set [4] deals with NB4 APL cells. The experiment in a line: cells. The conditions noted are these: Homo sapiens, 48 h, read-out: IC50 NB4 (antiproliferative activity).
Data set [5] has as its target T2, human MAO B (Homo sapiens, UniProt P27338).
T2 sequence (P27338 1-520): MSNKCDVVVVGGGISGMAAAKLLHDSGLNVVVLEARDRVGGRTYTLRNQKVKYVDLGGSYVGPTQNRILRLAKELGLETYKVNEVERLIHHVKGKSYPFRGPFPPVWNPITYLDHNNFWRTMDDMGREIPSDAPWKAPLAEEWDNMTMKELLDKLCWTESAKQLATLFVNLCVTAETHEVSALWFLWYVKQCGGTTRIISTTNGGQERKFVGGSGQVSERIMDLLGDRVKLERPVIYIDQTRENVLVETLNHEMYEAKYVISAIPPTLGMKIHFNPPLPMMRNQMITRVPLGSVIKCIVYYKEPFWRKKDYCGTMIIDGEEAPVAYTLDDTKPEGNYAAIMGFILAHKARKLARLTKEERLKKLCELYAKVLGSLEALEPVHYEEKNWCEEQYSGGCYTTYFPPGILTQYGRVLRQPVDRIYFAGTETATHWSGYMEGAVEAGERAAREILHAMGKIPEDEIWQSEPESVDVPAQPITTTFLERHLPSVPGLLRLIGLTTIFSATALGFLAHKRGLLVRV
The experiment in a line: Anti-MAO assay. The data set is classed as biochemical. The conditions noted are these: read-out: % inhibition at 100 μM MAO B.

Data set [6] has as its target T2, human MAO B. The conditions noted are these: added for comparison, ref [13b], [19]; cited from earlier work.
For data set [7], the target named is human recombinant LSD1/CoREST enzymatic complex (Homo sapiens, UniProt O60341). The experiment in a line: LSD1 enzyme inhibition assay. The class given is biochemical.
Data set [8] in a line: Microsomal stability in liver microsomes. The class given is in vitro ADME. The following applies: mouse, pH 7.4. (Liver microsomes are a subcellular fraction often used to study metabolism.)
Data set [9] in a line: Microsomal stability in liver microsomes. The conditions noted are these: human, pH 7.4. The data set is classed as in vitro ADME.
Setting [10] is: read-out: LSD1, IC50, LSD1/CoREST, 15 min preincubation, NI = no inhibition.

Structures are written as SMILES. Where a name gives a salt, the structure may show the parent alone. Read-outs that look alike come from different tables or passages of the source.

On to `N[C@@H]1C[C@H]1c1ccccc1` (racemic) [TCP, tranylcypromine, reference compound], for which the IC50 with NB4 APL cells [1] and in the data set on MV4–11 AML cells [2] was above 100 µM in each case. The “% inhibition at 100 μM MAO A” value at human MAO A is listed as 79%.
With `NC1CC1c1ccc(NC(=O)OCc2ccccc2)cc1` (centres unmarked) [1b, benzyl [4-(2-aminocyclopropyl)phenyl]carbamate], the values for the IC50 in the data set on MV4–11 AML cells [3] and with NB4 APL cells [4] were 22.4 ± 3.8 µM and 25 ± 3.2 µM, respectively. Moreover, the inhibition at 100 µM stood at 37% at human MAO B [5] and 96% at human MAO A.
Turning to `NC1CC1c1ccc(NC(=O)C(Cc2ccccc2)NC(=O)OCc2ccccc2)cc1` (centres unmarked) [2a], the “% inhibition at 100 μM MAO B” value at human MAO B [6] was 1%.
On to `Cl.NC1CC1c1cccc(NC(=O)C(Cc2ccccc2)NC(=O)OCc2ccccc2)c1` (centres unmarked) [2b, Benzyl (1-((3-(2-aminocyclopropyl)phenyl)amino)-1-oxo-3-phenylpropan-2-yl)carbamate hydrochloride], for which the values for the IC50 (in the data set on MV4–11 AML cells [3]; in the data set with NB4 APL cells [4]; in data set [7]) were 24.2 ± 3.1 µM, 42.7 ± 5.8 µM and 18.1 ± 2.9 µM, respectively. In [7], the “fold decrease of anti-LSD1 potency relative to 2a” value is recorded as above 120 fold.
As for `NC1CC1c1ccc(NC(=O)c2ccc(NC(=O)OCc3ccccc3)cc2)cc1` (centres unmarked) [3a, Benzyl (4-((4-(2-aminocyclopropyl)phenyl)carbamoyl)phenyl)carbamate hydrochloride], the microsomal CLint at 1 μM amounted to 7.1 ± 2.2 µL/min/mg in [8] and 6.7 ± 1.1 µL/min/mg in data set [9]. Moreover, the IC50 in the data set with MV4–11 AML cells [3] was found to be 0.4 ± 0.01 µM; in the data set with NB4 APL cells [4], 0.6 ± 0.02 µM; in data set [7], 0.09 ± 0.012 µM. Further, the inhibition at 100 µM on human MAO B [5] came to 8%; on human MAO A it was 37%.
As for `CN1CCN(c2cc(C(=O)Nc3ccc(C4CC4N)cc3)ccc2NC(=O)OCc2ccccc2)CC1` (centres unmarked) [3c, Benzyl 4-(4-(2-aminocyclopropyl)phenylcarbamoyl)-2-(4-methylpiperazin-1-yl)phenylcarbamate hydrochloride], the IC50 with MV4–11 AML cells [3] was determined as 2.5 ± 0.1 µM; in the data set on NB4 APL cells [4] it was 0.9 ± 0.06 µM; in [7] it was 0.089 ± 0.01 µM. The inhibition at 100 µM on human MAO B [5] was found to be 55%; on human MAO A, 69%.
`NC1CC1c1ccc(NC(=O)c2ccc(Oc3ccccc3)c(NC(=O)OCc3ccccc3)c2)cc1` (centres unmarked) [3h, Benzyl (5-((4-(2-aminocyclopropyl)phenyl)carbamoyl)-2-phenoxyphenyl)carbamate hydrochloride]: the IC50 stood at 3.3 ± 0.3 µM in the data set on MV4–11 AML cells [3], 5.4 ± 0.6 µM with NB4 APL cells [4] and 0.143 ± 0.028 µM in [7].
On the same counts, the results for `NC1CC1c1ccc(NC(=O)c2ccc(Sc3ccccc3)c(NC(=O)OCc3ccccc3)c2)cc1` (centres unmarked) [3i, Benzyl (5-((4-(2-aminocyclopropyl)phenyl)carbamoyl)-2-(phenylthio)phenyl)carbamate hydrochloride] are 21.4 ± 3.3 µM, 23.2 ± 3.8 µM and 0.073 ± 0.011 µM.
With `NC1CC1c1ccc(NC(=O)c2ccccc2NC(=O)OCc2ccccc2)cc1` (centres unmarked) [3j, Benzyl (2-((4-(2-aminocyclopropyl)phenyl)carbamoyl)phenyl)carbamate hydrochloride], the IC50 with MV4–11 AML cells [3] came out at 8.2 ± 1.2 µM; in the data set on NB4 APL cells [4] it was 8.1 ± 0.9 µM; in [7], 0.146 ± 0.022 µM. Further, the inhibition at 100 µM came to 17% on human MAO B [5] and 72% at human MAO A.
`Cl.NC1CC1c1ccc(NC(=O)c2ccc(Br)cc2NC(=O)OCc2ccccc2)cc1` (centres unmarked) [3k, Benzyl (2-((4-(2-aminocyclopropyl)phenyl)carbamoyl)-5-bromophenyl)carbamate hydrochloridrate]: the IC50 worked out at 0.159 ± 0.034 µM in [7] (setting [10]), 9.3 ± 1 µM in the data set with NB4 APL cells [1] and 6.2 ± 0.7 µM in the data set on MV4–11 AML cells [2]. Besides, the “% inhibition at 100 μM MAO A” value at human MAO A is 94%.
For the molecule `NC1CC1c1ccc(NC(=O)c2ccc(-c3ccccc3)cc2NC(=O)OCc2ccccc2)cc1` (centres unmarked) [3l, Benzyl (4-((4-(2-aminocyclopropyl)phenyl)carbamoyl)-[1,1’-biphenyl]-3-yl)carbamate hydrochloride], the IC50 was 8.1 ± 1 µM in the data set with MV4–11 AML cells [3], 7.6 ± 0.8 µM in the data set with NB4 APL cells [4] and 0.135 ± 0.029 µM in [7].
For the molecule `NC1CC1c1ccc(NC(=O)c2cc(NC(=O)c3ccccc3)ccc2OCC(=O)Nc2ccccc2)cc1` (centres unmarked) [3m, N-(4-(2-aminocyclopropyl)phenyl)-5-benzamido-2-(2-oxo-2-(phenylamino)ethoxy)benzamide hydrochloride], the IC50 in the data set with MV4–11 AML cells [3] was determined as 5.6 ± 1.1 µM; in the data set on NB4 APL cells [4], 5.5 ± 1.4 µM; in [7], 3.9 ± 0.2 µM.
For `NC1CC1c1ccc(NC(=O)c2cc(NC(=O)c3ccccc3)ccc2OCC(=O)NCc2ccccc2)cc1` (centres unmarked) [3n, N-(4-(2-aminocyclopropyl)phenyl)-5-benzamido-2-(2-(benzylamino)-2-oxoethoxy)benzamide], in that order: 3.3 ± 0.6 µM, 3.8 ± 0.8 µM and 1.7 ± 0.05 µM.
Turning to `CNC1CC1c1ccccc1` (centres unmarked) [4a, N-methyl-TCP], in data set [7] (setting [10]), the IC50 was found to be 10.8 ± 1.1 µM. In addition, the “LSD1/CoREST potency relative to TCP (fold less effective)” value in [7] is recorded as “same potency of TCP”.
On the same counts, the results for `CN(C)C1CC1c1ccccc1` (centres unmarked) [4b, N,N-dimethyl-TCP] are 56.2 ± 7.8 µM and 5 fold.
`NC(=O)C1CC1c1ccccc1` (centres unmarked) [4c, 2-Phenylcyclopropane-1-carboxamide]: the IC50 in data set [7] (setting [10]) is above 100 µM.
As for `NNC(=O)C1CC1c1ccccc1` (centres unmarked) [4d, 2-phenylcyclopropane-1-carbohydrazide], in [7] (setting [10]), the IC50 was above 100 µM.
Same read-out and setting: next, `NC1(c2ccccc2)CC1` [4e, 1-Phenylcyclopropan-1-amine hydrochloride]: above 100 µM; `NC1(c2ccc(NC(=O)C(Cc3ccccc3)NC(=O)OCc3ccccc3)cc2)CC1` (centres unmarked) [4f, Benzyl (1-((4-(1-aminocyclopropyl)-phenyl)-amino)-1-oxo-3-phenylpropan-2-yl)-carbamate hydrochloride]: above 100 µM; `NC(=O)C1(c2ccccc2)CC1` [4g, 1-Phenylcyclopropane-1-carboxamide]: above 100 µM.
With `NCC1(c2ccccc2)CC1` [4h, (1-phenylcyclopropyl)methanamine], the IC50 in data set [7] (setting [10]) is above 100 µM.
Still for that read-out and setting: then `NN1CC1c1ccccc1` (centres unmarked) [4i, 2-phenylaziridin-1-amine], with above 100 µM.

As a reminder, the IC50 is the concentration that inhibits the measured activity by half. What is called % inhibition is the drop in the measured response relative to a control, in per cent. What is called inhibition is the share of the control response that was lost under treatment. As usually defined, the microsomal CLint is the rate of metabolic loss divided by the concentration.
